Data reported in PubChem BioAssay (NCI).
Where “and” joins values, the source holds several entries; their conditions need not be identical. Equal values may be shown once.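 Growth conditions: 96-well plates. Treatment: test compound, 48 hours, 5 concentrations. Analysis: linear interpolation between bracketing concentrations; unreached endpoints set to highest concentration. At the GI50, growth is halved. TGI denotes the concentration required for complete inhibition of growth.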

Tests used:
Assay in all cases: inhibition of tumour cell growth, NCI panel, 48 h
A498 renal = tested on: A498 renal
BT-549 breast = tested on: BT-549 breast
HCT-116 colon = tested on: HCT-116 colon
HL-60(TB) leukemia = tested on: HL-60(TB) leukemia
KM12 colon = tested on: KM12 colon
MCF7 breast = tested on: MCF7 breast
MDA-N = tested on: MDA-N
MOLT-4 leukemia = tested on: MOLT-4 leukemia
NCI-H23 lung = tested on: NCI-H23 lung
OVCAR-3 ovarian = tested on: OVCAR-3 ovarian
OVCAR-4 ovarian = tested on: OVCAR-4 ovarian
OVCAR-5 ovarian = tested on: OVCAR-5 ovarian
RPMI-8226 leukemia = tested on: RPMI-8226 leukemia
RXF 393 renal = tested on: RXF 393 renal
SF-295 CNS = tested on: SF-295 CNS
SK-OV-3 ovarian = tested on: SK-OV-3 ovarian
SN12C renal = tested on: SN12C renal
U251 CNS = tested on: U251 CNS
HCC-2998 colon = tested on: HCC-2998 colon

Row | Compound | TGI (A498 renal) [µM] | TGI (BT-549 breast) [µM] | TGI (HCT-116 colon) [µM] | TGI (HL-60(TB) leukemia) [µM] | TGI (KM12 colon) [µM] | TGI (MCF7 breast) [µM] | TGI (MDA-N) [µM] | TGI (MOLT-4 leukemia) [µM] | TGI (NCI-H23 lung) [µM] | TGI (OVCAR-3 ovarian) [µM] | TGI (OVCAR-4 ovarian) [µM] | TGI (OVCAR-5 ovarian) [µM] | TGI (RPMI-8226 leukemia) [µM] | TGI (RXF 393 renal) [µM] | TGI (SF-295 CNS) [µM] | TGI (SK-OV-3 ovarian) [µM] | TGI (SN12C renal) [µM] | TGI (U251 CNS) [µM] | TGI (HCC-2998 colon) [µM] | GI50 (OVCAR-4 ovarian)
1 | CC(=O)O[C@H]1CC[C@@]2(C)C(=CC[C@@H]3[C@@H]2CC[C@](C)(c2nnc(C)o2)[C@H]3CC#N)C1 | > 100 | > 100 | > 100 | > 100 | > 100 | > 100 | > 100 | > 100 | > 100 | > 100 | > 100 | > 100 | > 100 | > 100 | > 100 | > 100 | > 100 | > 100 | – | –
2 | CC(C)CC(NC=O)C(=O)NC(Cc1ccccc1)NC(=O)CNC(=O)C(C)NC(=O)C(N)Cc1ccc(O)cc1 (stereo unspecified) | > 100 | > 100 | > 100 | > 100 | > 100 | > 100 | > 100 | > 100 | > 100 | > 100 | > 100 | > 100 | > 100 | > 100 | > 100 | > 100 | > 100 | > 100 | – | –
3 | CC(Cc1cccc2c1Nc1ccccc1S2)N(C)CCO (stereo unspecified) | 93.9 | > 100 | > 100 | > 100 | > 100 | > 100 | > 100 | > 100 | > 100 | > 100 | > 100 | > 100 | – | > 100 | > 100 | > 100 | > 100 | > 100 | > 100 | –
4 | C=C(CCC/C(C)=C/C=C/[C@H](C)CCCc1ccoc1)C[C@@H]1OC(=O)[C@H](C)[C@@H]1O | 17.2 | 16.9 | 42.4 | – | 23.3 | 33.9 | 20.5 | 29.5 | 18.2 | 17.6 | 13.1 | 23.8 | 30.2 | 14.2 | 22.9 | 16.8 | 17.7 | 24.3 | 37 | –
5 | C(=N\NC1=NCCN1)/c1cccc2cc3ccncc3nc12 | 23.9 | 29.4 | 3.19 | 2.76 | 17.9 | 14.5 | 11 | 10.8 | 25.5 | 17.1 | 12.3 | – | 4.44 | 13.2 | 14.5 | 23.5 | 14.9 | 4 | 18.3 | –
6 | Cc1c2ccccc2c(C2C3C(=O)N(c4cccc5ccccc45)C(=O)C3ON2Cc2ccc(CC(N)=O)cc2)c2ccccc12 (stereo unspecified) | > 50 | > 50 | > 50 | > 50 | > 50 | > 50 | 35.6 | 25.7 | > 50 | > 50 | > 50 | > 50 | – | 40 | > 50 | > 50 | > 50 | > 50 | – | –
7 | O=c1oc2ccc3ccccc3c2cc1-c1cn2c(n1)sc1ccccc12 | > 100 | > 100 | > 100 | > 100 | > 100 | > 100 | > 100 | 14 | > 100 | > 100 | > 100 | > 100 | > 100 | > 100 | > 100 | > 100 | – | > 100 | > 100 | –
8 | O=c1nc2c(c(-c3ccc(F)cc3)[nH]1)COC/C2=C\c1ccc(F)cc1 | > 100 | > 100 | > 100 | – | > 100 | > 100 | > 100 | > 100 | > 100 | > 100 | > 100 | > 100 | > 100 | > 100 | > 100 | > 100 | > 100 | > 100 | > 100 | –
9 | Nc1nc(N)c2ncn(-c3ccccc3)c2n1 | > 100 | > 100 | > 100 | – | > 100 | > 100 | > 100 | > 100 | > 100 | > 100 | > 100 | > 100 | > 100 | > 100 | > 100 | > 100 | > 100 | > 100 | > 100 | 21.8 µM and > 100 µM
10 | CCOC(=O)C1=CNC(C(=O)OCC)C1c1cccn1-c1ccccc1 (stereo unspecified) | > 100 | > 100 | 58.6 | – | 98.7 | > 100 | 57.4 | 47.3 | > 100 | > 100 | > 100 | > 100 | – | 69 | 74.5 | – | > 100 | > 100 | > 100 | –
11 | CCOC(=O)Nc1n[nH]nc1Cl | > 100 | > 100 | > 100 | – | > 100 | > 100 | > 100 | > 100 | > 100 | > 100 | > 100 | > 100 | > 100 | > 100 | – | > 100 | > 100 | > 100 | > 100 | –
12 | COC(=O)[C@H](COC(C)(C)C)NC(=O)N[C@H](C)c1ccccc1 | > 100 | > 100 | > 100 | > 100 | > 100 | > 100 | > 100 | > 100 | > 100 | > 100 | > 100 | > 100 | > 100 | – | > 100 | > 100 | > 100 | > 100 | > 100 | –
13 | CCOC(=O)C1(C#N)C(C#N)(C#N)C1(C#N)C#N | > 100 | > 100 | > 100 | > 100 | > 100 | > 100 | > 100 | > 100 | > 100 | – | > 100 | > 100 | > 100 | > 100 | > 100 | > 100 | > 100 | > 100 | > 100 | –
